The record followed here is US5308608A, “Photosensitizing Diels-Alder porphyrin derivatives” (University of British Columbia, priority 1992, dated 1994).

The subject of the data set is MI-S. In words: In vitro photosensitizing cytotoxicity (LD50) on cell line MI-S, 700-820 nm light for 30 minutes. Type of data set: cell-based. As to conditions: eosin-Y exclusion or tritium-labeled thymidine uptake.

Description: Various invention compounds were assayed in vitro using either cell line P815 or MI-S as model systems to test their photosensitizing activity. In the standard protocol, various concentrations of test compounds were added to washed suspensions of cells from cultures of the target cells and the mixtures were then irradiated using 700-820 nm light for 30 minutes. The results were assayed by determining cytotoxicity using direct counting using eosin-Y exclusion, a standard procedure for differentiating living from dead cells.
In other determinations conducted as above, the cells recovered from light exposure were assayed for viability by incubating them for 18 hours in 10 mCi/ml tritium-labeled thymidine according to the standard procedure whereby thymidine incorporation is equated with viability. The cells were harvested and radioactivity uptake was measured by a scintillation counter.

Turning to `CCc1c(C)c2cc3nc(cc4[nH]c(cc5nc(cc1[nH]2)C1(C)C5=CCC2C(=O)N(c5ccccc5)C(=O)C21)c(C)c4CC)C1(C)C3=CCC2C(=O)N(c3ccccc3)C(=O)C21` (stereo not shown) [Compound 12], the LD50 is given as 100 ng.
